From patent publication US9250240B2, “Immunoreactive Ehrlichia p120/p140 epitopes and uses thereof” (Research Development Foundation, priority 2009, dated 2016)
No end group written: not given here.

Legend:
[1] = tested on: E. chaffeensis antibodies in HME patient sera; test: ELISA evaluation of E. chaffeensis immunodeterminants for serologic diagnosis of HME; type: binding, human
Description: ELISA. For epitope mapping, an ELISA was performed as previously described (Luo et al., 2009). For serologic diagnosis evaluation, an Immobilizer amino plate (Nunc, Roskilde, Denmark) was used to increase the signal-to-noise ratio. Immobilizer amino plates were coated with synthetic peptides or recombinant proteins (0.5 μg/well; 50 μl) suspended in 100 mM sodium carbonate buffer (pH 9.6) and incubated with gentle agitation at room temperature for 1 to 2 h or overnight at 4° C. The wells were washed four times with 300 μl phosphatebuffered saline containing 0.05% (vol/vol) Tween 20 (PBST; pH 7.2) by a plate washer (SkanWasher 400; Molecular Devices, Sunnyvale, Calif.). Dog or human sera diluted (1:100 or 1:200, respectively) in PBST were added to each well (50 μl) and incubated at room temperature for 1 h. The plates were washed again, and 50 μl alkaline phosphatase-labeled goat anti-dog or -human IgG(H+L) secondary antibody (Kirkegaard & Perry Laboratories, Gaithersburg, Md.) diluted (1:5,000) in PBST was added and incubated at room temperature for 1 h. After the addition of substrate (BluePhos; Kirkegaard & Perry Laboratories), plates were incubated in the dark for 30 min, color development was determined on a microplate reader (VersaMax; Molecular Devices, Sunnyvale, Calif.) at A650, and data were analyzed by SoftMax Pro version 4.0 (Molecular Devices). Optical density (OD) readings represent the mean OD value for three wells (±standard deviations) after subtracting the OD value of the negative control wells. All sera negative for E. chaffeensis by IFA had readings of <0.05 OD unit; therefore, a positive sample threshold was set at >0.1 OD unit. In addition, a reading of 0.1 to 0.5 OD unit was considered a weak positive, and a reading of >0.5 OD unit was considered a strong positive. IFA. The anti-E. chaffeensis antibody status in HME patient sera was determined as described previously (McBride et al., 2003). […] The statistical differences between experimental groups were assessed with the two-tailed Student t test, and significance was indicated by a P value of <0.05. […]

[2] = tested on: antibodies in anti-E. canis dog sera; test: ELISA of overlapping synthetic peptides spanning the E. canis p140 repeat unit; type: binding; conditions: four anti-E. canis sera from naturally infected dogs (nos. 2160, 6, 10, 18)
Description: ELISA. Enzyme-linked immunosorbent assay (ELISA) plates (MaxiSorp; Nunc, Roskilde, Denmark) were coated (0.5 μg/well; 50 μl) with recombinant proteins or synthetic peptides suspended in phosphate-buffered saline (pH 7.4). Proteins and peptides were absorbed for 1 h at room temperature with gentle agitation, and subsequently washed thrice with 200 μl Tris-buffered saline containing 0.2% Tween 20 (TBST). Plates were blocked with 100 μl 10% equine serum (Sigma) in TBST for 1 h at room temperature with agitation, and washed. Convalescent dog or human sera diluted (1:100 or 1:200, respectively) in 10% equine serum-TBST were added to each well (50 μl) and incubated at room temperature for 1 h with gentle agitation. […] The plates were incubated in the dark for 30 min with agitation, and color development was determined on a microplate reader (VersaMax; Molecular Devices, Sunnyvale, Calif.) at A650 and data analyzed by SoftmaxPro v4.0 (Molecular Devices). Optical density (OD) readings represent the mean OD for three wells (±standard deviations) after subtracting the OD value of the buffer-only wells. A reading >0.2 OD unit above the negative control absorbance was considered positive for all samples. In addition, a reading 0.2-0.5 OD unit above the control absorbance was considered a weak positive, and a reading >0.5 OD unit above the control absorbance was considered a strong positive. […]

[3] = 31 HME patient sera (IFA titers 64 to 8192), positive = 0.1 OD unit above negative control

| Substance | % of patients with detectable antibodies [1, 3] [%] | No. of patients with detectable antibodies [1, 3] | specificity for diagnosing HME ([1]; as worded in the summary) [%] | Immunoreactivity by ELISA [2] |
| --- | --- | --- | --- | --- |
| TRP32 peptides: equal (w:w) mixture of TRP32-R3 and TRP32-R4 peptides (chain 1 SDLHGSFSVELFDPFKEAVQLGNDLQQSSD; chain 2 SDSHEPSHLELPSLSEEVIQLESDLQQSSN; not fully specified) | 87.1 | 27 | 87.1 | – |
| p140R-3: 11-mer overlapping synthetic peptide of the E. canis p140 repeat unit (SKEESTPEVKA) | – | – | – | virtually nonreactive |
